# How the values were obtained:
# Format in all cases: in vivo
# corn (Zea mays) = assay: Test A1 preemergence, corn
# How it was run: (§1)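 Both timings started from seed in a loam-sand blend. Preemergence pots got a directed soil application immediately; postemergence pots were sprayed when seedlings had one or two leaves and stood 2–10 cm. Each compound was prepared in a non-phytotoxic solvent plus surfactant.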
# [1] = test system: Foxtail, Giant (giant foxtail, Setaria faberi); assay: Test A1 preemergence, Foxtail, Giant
# How it was run: (§2)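 Pre: seeds in loam/sand blend, directed soil spray. Post: potted plants, same soil, 2–10 cm, 1–2 leaf stage. Chemicals in non-phytotoxic solvent + surfactant for both.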
# kochia (Bassia scoparia) [2] = assay: Test A1 preemergence, kochia
# How it was run: as §2
# [3] = test system: Oat, Wild (wild oat, Avena fatua); assay: Test A1 preemergence, Oat, Wild
# How it was run: as §2
# [4] = test system: ragweed (common ragweed, Ambrosia artemisiifolia); assay: Test A1 preemergence, ragweed
# How it was run: as §2
# kochia (Bassia scoparia) [5] = assay: Test A1 postemergence, kochia; details: Postemergence
# How it was run: as §2
# [6] = test system: Oat, Wild (wild oat, Avena fatua); assay: Test A1 postemergence, Oat, Wild; details: Postemergence
# How it was run: as §1
# [7] = test system: ragweed (common ragweed, Ambrosia artemisiifolia); assay: Test A1 postemergence, ragweed; details: Postemergence
# How it was run: as §1
# soybean (Glycine max) = assay: Test A1 postemergence, soybean; details: Postemergence
# How it was run: as §2
# [8] = test system: barnyardgrass (Echinochloa crus-galli); assay: Test B1 flooded paddy test, barnyardgrass; details: 250 g ai/ha, Flood, applied to paddy water, 2-leaf stage, visually evaluated after 10 to 14 days
# Description: A dash (-) response means no test result.
# [9] = 31 g ai/ha, 0 to 100 scale (0 no effect, 100 complete control)
# [10] = 125 g ai/ha, 0 to 100 scale, 0 no effect, 100 complete control
# [11] = 31 g ai/ha, 0 to 100 scale (0 no effect, 100 complete control), 10 days
SMILES,"Plant response rating, Corn (corn (Zea mays); [9])","Plant response rating, Corn (corn (Zea mays); [10])","Plant response rating, Foxtail, Giant [1, 9]","Plant response rating, Foxtail, Giant [1, 10]","Plant response rating, Kochia (kochia (Bassia scoparia) [2]; [9])","Plant response rating, Kochia (kochia (Bassia scoparia) [2]; [10])","Plant response rating, Oat, Wild [3, 9]","Plant response rating, Oat, Wild [3, 10]","Plant response rating, Ragweed [4, 9]","Plant response rating, Ragweed [4, 10]","Plant response rating, Kochia (kochia (Bassia scoparia) [5]; [11])","Plant response rating, Kochia (kochia (Bassia scoparia) [5]; 125 g ai/ha, 0 to 100 scale)","Plant response rating, Oat, Wild [6, 11]","Plant response rating, Oat, Wild ([6]; 125 g ai/ha, 0 to 100 scale)","Plant response rating, Ragweed [7, 11]","Plant response rating, Ragweed ([7]; 125 g ai/ha, 0 to 100 scale)","Plant response rating, Soybean (soybean (Glycine max); [11])","Plant response rating, Soybean (soybean (Glycine max); 125 g ai/ha, 0 to 100 scale)","Plant response rating, Barnyardgrass (0 to 100 scale, 0 is no effect, 100 is complete control) [8]"
"Cc1c(C(=O)N2CCCCC2)cc(N(COC(=O)C(C)(C)C)S(=O)(=O)C(F)(F)F)c(C)c1C [Compound 329, [[(Trifluoromethyl)sulfonyl][2,3,4-trimethyl-5-(1-piperidinylcarbonyl)phenyl]amino]methyl 2,2-dimethylpropanoate]",0,0,30,50,0,30,0,0,60,70,10,20,0,0,40,70,60,60,95
Cc1cc(C)c(N(C(=O)OCC(C)C)S(=O)(=O)C(F)(F)F)cc1C1=NOC2CCCC12 (centres unmarked) [Compound 299],0,0,0,40,0,50,0,20,0,30,0,20,0,0,40,70,40,50,95
Cc1c(NS(=O)(=O)C(F)(F)F)cc(C(=O)N(C)C)c(C)c1Cl [Compound 287],0,0,0,30,20,60,0,10,0,80,0,10,0,0,60,70,30,50,0
"CCOC(=O)N(c1cc(C(=O)N2CCCCC2)c(C)c(C)c1C)S(=O)(=O)C(F)(F)F [Compound 330, Ethyl N-[(trifluoromethyl)sulfonyl]-N-[2,3,4-trimethyl-5-(1-piperidinylcarbonyl)phenyl]carbamate]",0,0,80,100,10,40,0,20,40,70,10,50,0,10,50,80,90,80,95
Cc1cc(C)c(N(COC(=O)N(C)C)S(=O)(=O)C(F)(F)F)cc1C1=NOC2CCCC12 (centres unmarked) [Compound 317],0,0,0,0,0,0,0,0,0,0,0,0,0,0,10,0,0,0,0

# — US20230278972A1, “SUBSTITUTED HALOALKYL SULFONANILIDE HERBICIDES” (FMC Corporation, priority 2020, published 2023)
